According to patent US9572830B2, “Uridine effects on dopamine release” (MASSACHUSETTS INSTITUTE OF TECHNOLOGY, priority 2004, dated 2017):

Key:
[1] = tested on: striatum; test: Total tissue content of DA, 5-HT and metabolites in striatum after sacrifice; type: in vivo, rat; settings: UMP-fed rats vs control
Method: (§1) Retired breeder rats consumed a diet containing normal chow (Harlan Tech Lad, Madison, Wis.) supplemented with or without uridine 5′-monophosphate (UMP) (2.5%, w/w)—at a final concentration of 500 mg/kg/day, for a period of six weeks. Microdialysis was performed with cannulas implanted directly within the right corpus striatum of the control and treated rats. Cannulas were implanted on day 1, and samples were collected on days 3 and 4. Micro-dialysates (22.5 microliter, collected over 15 minutes) were assayed for dopamine (DA), 3,4-dihydroxyphenylacetic acid (DOPAC), homovanillic acid (HVA), 5-hydroxy-tryptamine (5-HT) and 5-hydroxyindoleacetic acid (5-HIAA). Real-time neurotransmitter level measurements were taken on samples drawn prior to and following depolarization of the neuron membrane via local application of […] potassium chloride (KCl) solution. Animals were then sacrificed, and striatum, hippocampus and temporal cortex were assayed for DA, DOPAC, HVA, 5HT, 5HIAA, DNA, protein and phosphatidyl choline (PC) content. DA and metabolites in dialysates and tissue samples were determined using an ESA Coulochem 11 5100A detector (E1=−175 mV; E2=+325 mV; Eguard=350 mV) with an ESA Microdialysis Cell (model 5014B, ESA, North Chelmsford, Mass.). The mobile phase (MD-TM, ESA) consisted of 75 mM NaH2PO4, 1.7 mM 1-octanesulfonic acid, 100 ?l/L Triethylamine, 25 ?M EDTA, 10% acetonitrile, pH 3.0. The flow rate was 0.4 mL/min. The column (ESA MD 150, 3×150 mm, 3 ?m, 120 Å) was kept in a 40° C. column oven. Samples were injected to HPLC by an Alltech 580 autosampler (Alltech, Deerfield, Ill.) and maintained to 4° C. with a cooling tray during analysis. Data were captured by Alltech AllChrom™ data system, and analyzed with AllChrom plus™ software. A timeline program, which could change the detection gain during sample separation and detection, was used to make it possible to get low DA and high metabolites concentration data in dialysate through one injection.

[2] = tested on: neurotransmitter release in right corpus striatum; test: Microdialysis of right corpus striatum of UMP-fed rats before, during and after potassium depolarization; type: in vivo, rat; settings: striatal microdialysate
Method: as §1, with “injection. Real-time neurotransmitter levels were assayed by measuring the faradaic current at the respective oxidation potentials with a carbon fiber electrode inserted through the cannula.” for “injection.”

[3] = striatum and striatal extracellular fluid (ECF)
[4] = UMP-fed rat vs control, before stimulation
[5] = UMP-fed rat vs control, during and after stimulation
[6] = rats fed UMP 2.5% w/w in chow (500 mg/kg/day) for six weeks, depolarization by local 100 nm KCl, vs control rat

For `O=c1ccn([C@@H]2O[C@H](COP(=O)(O)O)[C@@H](O)[C@H]2O)c(=O)[nH]1` [UMP, uridine 5′-monophosphate], the “total level of 5-HT in the striatum” value ([1]; striatal tissue) was “did not affect”, the “total level of DA in the striatum” value ([1]; striatal tissue) was “did not affect” and the “total striatal level of 5-HIAA” value [1, 3] was “slightly reduced”. The “total striatal level of DOPAC” value [1, 3] was “slightly reduced”, the “total striatal level of HVA” value [1, 3] was “slightly reduced” and the “total striatal levels of DA metabolites” value ([1]; summary statement) was “decreased”. For the same compound, the “basal level of 5-HIAA” value [2, 4] was “lower basal levels”, the “basal level of DOPAC” value [2, 4] was “lower basal levels” and the “basal level of HVA” value [2, 4] was “lower basal levels”. For the same compound, the “release of 5-HIAA on potassium stimulation” value [2, 5] was “increased, although by a smaller margin than DA and 5-HT, after but not during stimulation”, the “release of DOPAC on potassium stimulation” value [2, 5] was “increased, although by a smaller margin than DA and 5-HT, after but not during stimulation” and the “release of HVA on potassium stimulation” value [2, 5] was “increased, although by a smaller margin than DA and 5-HT, after but not during stimulation”. The “release of 5-HT during and after depolarization” value [2, 6] was “enhanced”, the “release of DA during and after depolarization” value [2, 6] was “enhanced” and the “release of DA during and after depolarization” value ([2]; rats fed UMP 2.5% w/w in chow (500 mg/kg/day) for six weeks, depolarization by local 100 nm KCl, vs control rat, listed as uridine monophosphate) was “significantly enhanced”.
